Source: PubChem BioAssay AID1963971 (Molecular Pharmacology Branch, DTP, NCI, 2024)

Tested on: 953936-095-R-J2-PDC spheroids with HUVEC/MSC, viability
Test: Anticancer human tumor 953936-095-R-J2-PDC patient-derived cervical squamous cell carcinoma cell line growth inhibition [PI3K]
Conditions: for IC50: curve of first compound; for viability, T/C: stronger effect = lower value
Outline: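 Viability of mixed-cell spheroids was determined after exposure to pairwise combinations, one partner being inavolisib, alpelisib, duvelisib or copanlisib. Highest tested concentration matched clinical Cmax where known and 10 microM where not, descending in half-log steps.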

[1] = second compound 0.00316 µM, first compound 0.0316 µM
[2] = second compound 0.00316 µM, first compound 0.1 µM
[3] = second compound 0.00316 µM, first compound 0.316 µM
[4] = second compound 0.00316 µM, first compound 1 µM
[5] = second compound 0.00316 µM, first compound 3.16 µM
[6] = second compound 0.00316 µM, first compound 10 µM
[7] = second compound 0.01 µM, first compound 0.0316 µM
[8] = second compound 0.01 µM, first compound 0.1 µM
[9] = second compound 0.01 µM, first compound 0.316 µM
[10] = second compound 0.01 µM, first compound 1 µM
[11] = second compound 0.01 µM, first compound 3.16 µM
[12] = second compound 0.01 µM, first compound 10 µM
[13] = second compound 0.0316 µM, first compound 0.0316 µM
[14] = second compound 0.0316 µM, first compound 0.1 µM
[15] = second compound 0.0316 µM, first compound 0.316 µM
[16] = second compound 0.0316 µM, first compound 1 µM
[17] = second compound 0.0316 µM, first compound 3.16 µM
[18] = second compound 0.0316 µM, first compound 10 µM
[19] = second compound 0.1 µM, first compound 0.0316 µM
[20] = second compound 0.1 µM, first compound 0.1 µM
[21] = second compound 0.1 µM, first compound 0.316 µM
[22] = second compound 0.1 µM, first compound 1 µM
[23] = second compound 0.1 µM, first compound 3.16 µM
[24] = second compound 0.1 µM, first compound 10 µM
[25] = second compound 0.316 µM, first compound 0.0316 µM
[26] = second compound 0.316 µM, first compound 0.1 µM
[27] = second compound 0.316 µM, first compound 0.316 µM
[28] = second compound 0.316 µM, first compound 1 µM
[29] = second compound 0.316 µM, first compound 3.16 µM
[30] = second compound 0.316 µM, first compound 10 µM
[31] = second compound 1 µM, first compound 0.0316 µM
[32] = second compound 1 µM, first compound 0.1 µM
[33] = second compound 1 µM, first compound 0.316 µM
[34] = second compound 1 µM, first compound 1 µM
[35] = second compound 1 µM, first compound 3.16 µM
[36] = second compound 1 µM, first compound 10 µM
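Note: spheroids exposed to compounds for seven days before read-out.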

In the case of `C#Cc1c(F)ccc2cc(O)cc(-c3ncc4c(N5CC6CCC(C5)N6)nc(OCC56CCCN5CC(F)C6)nc4c3F)c12` (centres undefined) + COc1c(OCCCN2CCOCC2)ccc2c3n(c(=NC(=O)c4cnc(N)nc4)nc12)CCN3, the IC50 (second compound 0.00316 µM) is reported as > 10000 nM, the IC50 (second compound 0.01 µM) is reported as 3920 nM and the IC50 (second compound 0.0316 µM) is reported as < 31.6 nM. The IC50 (second compound 0.1 µM) was < 31.6 nM, the IC50 (second compound 0.316 µM) was < 31.6 nM and the IC50 (second compound 1 µM) was < 31.6 nM. For the same molecule, the viability, T/C [1] was 81.9%, the viability, T/C [2] was 87.8% and the viability, T/C [3] was 86.6%. The viability, T/C [4] was 92.2%, the viability, T/C [5] was 72% and the viability, T/C [6] was 58.9%. The viability, T/C [7] was 75.5%, the viability, T/C [8] was 74.1% and the viability, T/C [9] was 69.1%. The viability, T/C [10] was 58.4%, the viability, T/C [11] was 54.3% and the viability, T/C [12] was 40%. It also gave a viability, T/C [13] of 40.1%, a viability, T/C [14] of 39.5% and a viability, T/C [15] of 38.7%. It also gave a viability, T/C [16] of 33.8%, a viability, T/C [17] of 25.7% and a viability, T/C [18] of 19.6%. It also gave a viability, T/C [19] of 18.3%, a viability, T/C [20] of 18.8% and a viability, T/C [21] of 14.1%. For the same molecule, the viability, T/C [22] was 10.9%, the viability, T/C [23] was 8.08% and the viability, T/C [24] was 6.07%. It also gave a viability, T/C [25] of 5.75%, a viability, T/C [26] of 4.83% and a viability, T/C [27] of 4.36%. It also gave a viability, T/C [28] of 3.39%, a viability, T/C [29] of 2.56% and a viability, T/C [30] of 1.89%. For the same molecule, the viability, T/C [31] was 1.56%, the viability, T/C [32] was 1.33% and the viability, T/C [33] was 0.98%. For the same molecule, the viability, T/C [34] was 1.02%, the viability, T/C [35] was 0.79% and the viability, T/C [36] was 0.41%.
For `C=CC(=O)N1CCN(c2nc(=O)n(-c3c(C)ccnc3C(C)C)c3nc(-c4c(O)cccc4F)c(F)cc23)C(C)C1` (centres undefined) + COc1c(OCCCN2CCOCC2)ccc2c3n(c(=NC(=O)c4cnc(N)nc4)nc12)CCN3, the IC50 (second compound 0.00316 µM) was > 10000 nM, the IC50 (second compound 0.01 µM) was > 10000 nM and the IC50 (second compound 0.0316 µM) was < 31.6 nM. The IC50 (second compound 0.1 µM) was < 31.6 nM, the IC50 (second compound 0.316 µM) was < 31.6 nM and the IC50 (second compound 1 µM) was < 31.6 nM. The viability, T/C [1] was 88.7%, the viability, T/C [2] was 91% and the viability, T/C [3] was 108%. The viability, T/C [4] was 106%, the viability, T/C [5] was 101% and the viability, T/C [6] was 93.1%. The viability, T/C [7] was 72.8%, the viability, T/C [8] was 79% and the viability, T/C [9] was 79.3%. The viability, T/C [10] was 84%, the viability, T/C [11] was 89.9% and the viability, T/C [12] was 91.9%. The viability, T/C [13] was 41.4%, the viability, T/C [14] was 43.6% and the viability, T/C [15] was 44.4%. The viability, T/C [16] was 46%, the viability, T/C [17] was 51.2% and the viability, T/C [18] was 45.1%. The viability, T/C [19] was 18.6%, the viability, T/C [20] was 18.4% and the viability, T/C [21] was 18.4%. The viability, T/C [22] was 20.2%, the viability, T/C [23] was 20.4% and the viability, T/C [24] was 15.2%. For the same molecule, the viability, T/C [25] was 7.53%, the viability, T/C [26] was 7.13% and the viability, T/C [27] was 6.33%. For the same molecule, the viability, T/C [28] was 6.9%, the viability, T/C [29] was 6.5% and the viability, T/C [30] was 3.82%. The viability, T/C [31] was 1.94%, the viability, T/C [32] was 1.84% and the viability, T/C [33] was 1.67%. For the same molecule, the viability, T/C [34] was 1.83%, the viability, T/C [35] was 1.85% and the viability, T/C [36] was 1.04%.
